# Several values for one entry are separate records, joined by “and”; a condition that tells them apart may be missing. Identical values can stand only once. Like-named read-outs stand apart in the source and are kept apart here.
# Assays:
# Corn [1] = test system: Corn
# SJCA = experiment: Greenhouse test Procedure IV: herbicide, biocide and antidote PPI, weed SJCA (Examples 53-55; Tables 52-54); format: in vivo; conditions: Herbicide No. 21 0.14 Kg/Ha, all PPI
# From the text: The test in this example paralleled that in Example 51, except the procedure was according to Procedure IV above and the herbicides used were No. 1 (MON-12000); No. 21 (XRD-498) and, again, No. 18 (PURSUIT); the biocide was, again, MOCAP®. Observations were taken thirteen (13) days after PPI treatment with biocide and antidote.
# This test was identical to that in Example 52, except for use of a different biocide, DIAZINON (Biocide No. 5, a nematicide and soil insecticide).
# This test was also identical to that in the preceding two examples, except that the biocide was malathion (No. 7, an insecticide).
# This test was identical to the preceding ones, except the biocide was DPX-43898 (No. 6, active ingredient in FORTRESS® insecticide, a soil insecticide). Also, the observation time was fourteen (14) days after PPI initiation.
# Giant foxtail (GIFT) = experiment: whole plant or invertebrate; format: in vivo; conditions: for inhibition at 140 g/ha / inhibition at 20 g/ha: Setaria faberi, iv; for inhibition at 20 g/ha: XRD-498 0.02 Kg/Ha alone
# Corn [2] = experiment: whole plant or invertebrate; conditions: Zea mays, iv; for inhibition at 20 g/ha: read-out: % Inhibition Corn, XRD-498 0.02 Kg/Ha alone
# Velvetleaf (VELE) = experiment: whole plant or invertebrate; format: in vivo, Abutilon theophrasti; conditions: for inhibition at 140 g/ha / inhibition at 20 g/ha: Abutilon theophrasti, iv; for inhibition at 20 g/ha: XRD-498 0.02 Kg/Ha alone
# [3] = Herb. […], PPI, 13 days after planting
# [4] = Herbicide No. 21 0.0175 Kg/Ha PPI alone, Table 23
# [5] = Herbicide No. 21 0.0175 Kg/Ha PPI alone, Table 24
# [6] = Herbicide No. 21 0.0175 Kg/Ha PPI alone, Table 25
# [7] = Herbicide No. 21 0.0175 Kg/Ha PPI alone, Table 26
# [8] = XRD-498 0.02 Kg/Ha PPI alone, 13 days after treatment
# [9] = […], PPI, 13 days after PPI (Table 31)
# [10] = […], PPI, 14 days after PPI (Table 34)
# [11] = 312 h, Herb. No. 21 0.14 kg/Ha alone, PPI, 13 days after planting
# [12] = 312 h, Table 51, Herbicide No. 21 0.14 Kg/Ha, where applied Biocide No. 8 8.96 kg/Ha and antidote 4.48 Kg/Ha, all PPI, observed 13 days after treatment
# [13] = 312 h, PPI, 13 days after PPI (Table 31)
# [14] = 336 h, PPI, 14 days after PPI (Table 34)
structure (smiles),measurement,setting,value
"Cc1ccn2nc(S(=O)(=O)Nc3c(F)cccc3F)nc2n1 [Herbicide No. 21, 5-Methyl-N-(2,6-difluorophenyl)-1,2,4-triazolo[1,5-a]pyrimidine-2-sulfonamide, reference compound]",% Inhibition Corn,Corn [1]; [3],75%
same,% Inhibition Corn,Corn [1]; [4],0%
same,% Inhibition Corn,Corn [1]; [5],0%
same,% Inhibition Corn,Corn [1]; [6],0%
same,% Inhibition Corn,Corn [1]; [7],5%
same,% Inhibition Corn,Corn [1]; [8],15%
same,corn injury,"Corn [1]; XRD-498 with OP insecticides, Examples 24-27",30-55%
same,corn injury,"Corn [1]; XRD-498 without insecticide, Examples 24-27",0-5%
same,% Inhibition Corn,Corn [1]; [9],70%
same,% Inhibition Corn,Corn [1]; [10],75%
same,corn injury,"Corn [1]; herbicide used in conjunction with COUNTER, Tables 29-37",55-70%
same,corn injury,"Corn [1]; herbicide without COUNTER, Tables 29-37",0-5%
same,% Inhibition Corn,Corn [1]; in vivo,50% and 30% and 55%
same,% Inhibition Corn,"Corn [1]; in vivo, listed as XRD-498",75%
same,inhibition at 140 g/ha,"SJCA; 312 h, Table 52, where applied Biocide No. 5 8.96 kg/Ha and antidote 4.48 Kg/Ha, observed 13 days after treatment",70%
same,inhibition at 140 g/ha,"SJCA; 312 h, Table 53, where applied Biocide No. 7 8.96 kg/Ha and antidote 4.48 Kg/Ha, observed 13 days after treatment",75%
same,inhibition at 140 g/ha,"SJCA; 336 h, Table 54, where applied Biocide No. 6 8.96 kg/Ha and antidote 4.48 Kg/Ha, observed 14 days after PPI initiation",60%
same,% Inhibition GIFT,Giant foxtail (GIFT); [3],95%
same,% Inhibition GIFT,Giant foxtail (GIFT); [4],0%
same,% Inhibition GIFT,Giant foxtail (GIFT); [5],0%
same,% Inhibition GIFT,Giant foxtail (GIFT); [6],0%
same,% Inhibition GIFT,Giant foxtail (GIFT); [7],0%
same,inhibition at 140 g/ha,Giant foxtail (GIFT); [11],40%
same,inhibition at 140 g/ha,Giant foxtail (GIFT); [12],70%
same,inhibition at 20 g/ha,Giant foxtail (GIFT); [13],30%
same,inhibition at 20 g/ha,Giant foxtail (GIFT); [14],35%
same,% Inhibition GIFT,Giant foxtail (GIFT); [8],25%
same,% Inhibition GIFT,Giant foxtail (GIFT); [9],75%
same,% Inhibition GIFT,Giant foxtail (GIFT); [10],65%
same,% Inhibition GIFT,Giant foxtail (GIFT); in vivo,60% and 75% and 90%
same,inhibition at 140 g/ha,"Corn [2]; 312 h, read-out: % Inhibition Corn, Herb. No. 21 0.14 kg/Ha alone, PPI, 13 days after planting",5%
same,inhibition at 140 g/ha,"Corn [2]; 312 h, read-out: % Inhibition Corn, Table 51, Herbicide No. 21 0.14 Kg/Ha, where applied Biocide No. 8 8.96 kg/Ha and antidote 4.48 Kg/Ha, all PPI, observed 13 days after treatment",10%
same,inhibition at 140 g/ha,"Corn [2]; 312 h, read-out: % Inhibition Corn, Table 52, Herbicide No. 21 0.14 Kg/Ha, where applied Biocide No. 5 8.96 kg/Ha and antidote 4.48 Kg/Ha, all PPI, observed 13 days after treatment",5%
same,inhibition at 140 g/ha,"Corn [2]; 312 h, read-out: % Inhibition Corn, Table 53, Herbicide No. 21 0.14 Kg/Ha, where applied Biocide No. 7 8.96 kg/Ha and antidote 4.48 Kg/Ha, all PPI, observed 13 days after treatment",10%
same,inhibition at 20 g/ha,Corn [2]; [13],5%
same,inhibition at 140 g/ha,"Corn [2]; 336 h, read-out: % Inhibition Corn, Table 54, Herbicide No. 21 0.14 Kg/Ha, where applied Biocide No. 6 8.96 kg/Ha and antidote 4.48 Kg/Ha, all PPI, observed 14 days after PPI initiation",10%
same,inhibition at 20 g/ha,Corn [2]; [14],20%
same,inhibition at 140 g/ha,Velvetleaf (VELE); [11],75%
same,inhibition at 140 g/ha,Velvetleaf (VELE); [12],80%
same,inhibition at 140 g/ha,"Velvetleaf (VELE); 312 h, Table 52, Herbicide No. 21 0.14 Kg/Ha, where applied Biocide No. 5 8.96 kg/Ha and antidote 4.48 Kg/Ha, all PPI, observed 13 days after treatment",80%
same,inhibition at 140 g/ha,"Velvetleaf (VELE); 312 h, Table 53, Herbicide No. 21 0.14 Kg/Ha, where applied Biocide No. 7 8.96 kg/Ha and antidote 4.48 Kg/Ha, all PPI, observed 13 days after treatment",85%
same,inhibition at 20 g/ha,Velvetleaf (VELE); [13],80%
same,inhibition at 140 g/ha,"Velvetleaf (VELE); 336 h, Table 54, Herbicide No. 21 0.14 Kg/Ha, where applied Biocide No. 6 8.96 kg/Ha and antidote 4.48 Kg/Ha, all PPI, observed 14 days after PPI initiation",85%
same,inhibition at 20 g/ha,Velvetleaf (VELE); [14],80%
same,% Inhibition VELE,Velvetleaf (VELE); [4],60%
same,% Inhibition VELE,Velvetleaf (VELE); [5],45%
same,% Inhibition VELE,Velvetleaf (VELE); [6],60%
same,% Inhibition VELE,Velvetleaf (VELE); [7],50%
same,% Inhibition VELE,Velvetleaf (VELE); [8],90%
same,% Inhibition VELE,Velvetleaf (VELE); [10],90%
same,% Inhibition VELE,Velvetleaf (VELE); in vivo,70% and 75%
same,% Inhibition VELE,"Velvetleaf (VELE); in vivo, listed as XRD-498",90%
